Assay results taken from patent US20150209263A1, “Method and Compositions for Oral Hygiene” (Imrex, Inc., priority 2003, published 2015).
Entries after “also recorded” stand apart in the source; their conditions may differ.

Test system: cats with recalcitrant stomatitis
Test: Treatment of cats with recalcitrant stomatitis (case reports)
Type: in vivo
Settings: single cat case reports
Experimental: Several cats experiencing recalcitrant stomatitis were treated using oral hygiene composition of the present invention further comprising emilgase. All compositions comprised 0.05% emilgase. All treatments were 5 mL/500 mL water (10 mL/L rate). If additional water was required after the 500 mL was consumed, plain water was offered. Any unconsumed solution was discarded after 24 hours and fresh solution was mixed.

SMILES | response of stomatitis to treatment
CN1CCN(c2c(F)cc3c(=O)c(C(=O)O)cn4c3c2OCN4C)CC1 [Zeniquin] | responded well
CC[C@H]1OC(=O)[C@H](C)[C@@H](O[C@H]2C[C@@](C)(OC)[C@@H](O)[C@H](C)O2)[C@H](C)[C@@H](O[C@@H]2O[C@H](C)C[C@H](N(C)C)[C@H]2O)[C@](C)(O)C[C@@H](C)CN(C)[C@H](C)[C@@H](O)[C@]1(C)O [Zithromax] | temporary responses; also recorded: did not respond
